Here are results for 15 compounds from ChEMBL document CHEMBL4257541, “Development of subnanomolar-affinity serotonin 5-HT4 receptor ligands based on quinoline structures” (Medchemcomm, 2018).

Bounds are passed on as bounds.

Sequence of 5-hydroxytryptamine receptor 4 (O70528 whole entry): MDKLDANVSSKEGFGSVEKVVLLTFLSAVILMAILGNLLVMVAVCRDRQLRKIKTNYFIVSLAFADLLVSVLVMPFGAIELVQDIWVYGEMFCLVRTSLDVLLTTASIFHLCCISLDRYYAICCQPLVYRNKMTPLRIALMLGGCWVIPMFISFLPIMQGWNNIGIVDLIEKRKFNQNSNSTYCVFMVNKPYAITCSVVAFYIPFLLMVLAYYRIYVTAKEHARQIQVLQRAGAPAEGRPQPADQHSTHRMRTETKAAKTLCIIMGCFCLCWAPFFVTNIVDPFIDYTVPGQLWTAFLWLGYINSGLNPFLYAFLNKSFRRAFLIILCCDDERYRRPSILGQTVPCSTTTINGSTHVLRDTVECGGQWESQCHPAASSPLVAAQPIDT

The assay addresses 5-hydroxytryptamine receptor 4 (Cavia porcellus, UniProt O70528). In words: Displacement of [3H]-GR113808 from 5-HT4R in Dunkin-Hartley guinea pig straitum nuclear membranes after 30 mins by filter binding method. Background: Displacement assays read how much labelled ligand stays bound in the presence of the test substance.
`O=C(NCCN1CCCCC1)c1cc(Cl)c2ccccc2n1`: the Ki was greater than 1000 nM. `CCCCN1CCC(COC(=O)c2cc(OC)nc3ccccc23)CC1` displayed a Ki of 0.62 nM.

On to `CCCCN1CCC(CNC(=O)c2cc(OC)nc3ccccc23)CC1`, for which the Ki is greater than 1000 nM. Compound `CCCCN1CCC(CCC(=O)c2cc(Cl)c(N)cc2OC)CC1` came in with an inhibition constant Ki of 3.9 nM. The compound `COc1cc(C(=O)OCCN2CCC(CO)CC2)c2ccccc2n1` displayed a Ki of 8 nM. For `COc1cc(C(=O)NCCN2CCCCC2)c2ccccc2n1` the value was greater than 1000 nM; for `COc1cc(C(=O)OCCN2CCC(NC(=O)OC(C)(C)C)CC2)c2ccccc2n1`, 304 nM.

For `CCCCN1CCC(COC(=O)c2ccnc3ccccc23)CC1`, the Ki came to 1.5 nM. In the case of `CCCCN1CCC(COC(=O)c2cc(Cl)nc3ccccc23)CC1`, affinity was put at a Ki of 0.86 nM. Then `CCCCN1CCC(CNC(=O)c2ccc3cccc(O)c3n2)CC1`, with 76 nM; and `O=C(NCCCN1CCCCC1)c1cc(Cl)c2ccccc2n1`, with greater than 1000 nM. Compound `COc1cc(C(=O)OCCN2CCCCC2)c2ccccc2n1` displayed a Ki of 15 nM. For `CCCCN1CCC(COC(=O)c2cc(C3CC3)nc3ccccc23)CC1` the value was 0.44 nM. For `CCCCN1CCC(CNC(=O)c2cc(Cl)c3ccccc3n2)CC1` the value was 39 nM; for `CCCCN1CCC(CNC(=O)c2cc(OC)c3ccccc3n2)CC1`, 148 nM.

The Ki is a dissociation constant, usually derived from enzyme kinetics or from competition with a known ligand. A lower Ki goes with a stronger hold on the target.
